From patent US20210179543A1, “CALPAIN-2 SELECTIVE INHIBITOR COMPOUNDS FOR TREATMENT OF GLAUCOMA” (Western University of Health Sciences, priority 2018, published 2021) come the findings set out here.

One series relates to retinal ganglion cells. As to the kind of experiment: acute glaucoma model (increased IOP), beta-III tubulin staining of retinal wholemounts. The series is classed as in vivo. The following applies: mouse, 200 μM, 1 μl intraocular 2 h after IOP elevation, 3 days after increased IOP. As for the experimental part:
Immunohistochemistry is shown with staining in the peripheral area of retinal wholemounts, with anti-beta-III tubulin, a marker for retinal ganglion cells, 3 days after increased IOP in a sham animal, an animal subjected to increased IOP and injected with vehicle (10% DMSO in PBS, 1 μl; IOP)) and an animal subjected to increased IOP and injected with NA115 (200 μM). Scale bar=100 microns.
Vehicle (10% DMSO in PBS, 1 μl) or NA115 (200 μM, 1 μl) was injected 2 h after IOP elevation. Retinal whole mounts were prepared 3 days after the surgery. One-way ANOVA followed by Bonferroni test. ****p<0.0001, **p<0.01. N=8 for Sham. N=7 for IOP, IOP+NA115.
The model of acute glaucoma previously reported in Wang et al. (2016) was used. In this model, intraocular pressure (IOP) was increased to 110 mm Hg for 1 h with the mouse under anesthesia. Two h later mice received an intraocular injection of various concentrations of a calpain-2 inhibitor and were returned to their home cages. They were sacrificed 4 h later for determination of calpain activity using immunohistochemistry to stain for the spectrin breakdown product (SBDP) selectively generated by calpain-mediated truncation of spectrin. Previous studies (Wang et al., 2016) have shown that, at this time-point calpain activity represents calpain-2 activity. […]

Series [1] deals with T1, calpain-2 (Homo sapiens, UniProt P17655).
T1 sequence (P17655 1-700): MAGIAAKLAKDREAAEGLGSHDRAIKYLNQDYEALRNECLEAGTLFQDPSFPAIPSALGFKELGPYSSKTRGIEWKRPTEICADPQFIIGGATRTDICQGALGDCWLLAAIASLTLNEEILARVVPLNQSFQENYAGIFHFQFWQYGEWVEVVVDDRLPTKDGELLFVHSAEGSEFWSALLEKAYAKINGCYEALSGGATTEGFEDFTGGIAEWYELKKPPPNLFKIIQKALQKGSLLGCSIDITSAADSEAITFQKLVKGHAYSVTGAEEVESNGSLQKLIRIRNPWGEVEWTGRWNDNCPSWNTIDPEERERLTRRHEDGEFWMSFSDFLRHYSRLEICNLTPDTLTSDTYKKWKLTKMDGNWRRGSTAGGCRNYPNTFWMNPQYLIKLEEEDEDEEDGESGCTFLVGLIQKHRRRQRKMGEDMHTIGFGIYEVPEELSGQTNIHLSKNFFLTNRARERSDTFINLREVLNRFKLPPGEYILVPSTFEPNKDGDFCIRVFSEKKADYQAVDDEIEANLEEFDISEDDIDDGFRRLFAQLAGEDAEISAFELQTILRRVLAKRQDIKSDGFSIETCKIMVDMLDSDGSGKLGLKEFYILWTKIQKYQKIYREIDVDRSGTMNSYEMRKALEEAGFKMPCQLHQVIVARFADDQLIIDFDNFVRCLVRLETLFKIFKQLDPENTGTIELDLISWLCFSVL
T1 sequence (P04632 1-268 partner): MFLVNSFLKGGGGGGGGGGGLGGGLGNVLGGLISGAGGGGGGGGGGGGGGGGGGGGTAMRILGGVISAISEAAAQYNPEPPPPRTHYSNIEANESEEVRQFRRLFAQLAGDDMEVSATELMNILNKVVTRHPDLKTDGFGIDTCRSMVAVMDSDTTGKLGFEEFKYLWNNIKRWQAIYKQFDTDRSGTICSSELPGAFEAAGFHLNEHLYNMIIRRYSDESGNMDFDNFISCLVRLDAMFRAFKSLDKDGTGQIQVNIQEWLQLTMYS
As to the kind of experiment: in vitro calpain assay with succinic-Leu-Tyr-AMC, calpain-2. The series is classed as biochemical. The settings on record: for IC50 / Ki: human calpain-2, succinic-Leu-Tyr-AMC. As for the experimental part: (§1) NA115A (Compound 15 (S above) was introduced at various concentrations into an in vitro mix comprising succinic-Leu-Tyr-AMC and human calpain-1 or calpain-2 (Sasaki et al, 1984), and the kinetics of the […] of fluorescence were determined for each of the calpains. The Kis of NA115, NA115A and NA115B for calpain-1 and calpain-2 are shown in Tables 1-2 below. The efficacy of NA115 against calpain-1 or calpain-2 appears to be only in NA115A.

Another series deals with T2, human calpain-1 (Homo sapiens, UniProt P07384).
T2 sequence (P07384 1-714): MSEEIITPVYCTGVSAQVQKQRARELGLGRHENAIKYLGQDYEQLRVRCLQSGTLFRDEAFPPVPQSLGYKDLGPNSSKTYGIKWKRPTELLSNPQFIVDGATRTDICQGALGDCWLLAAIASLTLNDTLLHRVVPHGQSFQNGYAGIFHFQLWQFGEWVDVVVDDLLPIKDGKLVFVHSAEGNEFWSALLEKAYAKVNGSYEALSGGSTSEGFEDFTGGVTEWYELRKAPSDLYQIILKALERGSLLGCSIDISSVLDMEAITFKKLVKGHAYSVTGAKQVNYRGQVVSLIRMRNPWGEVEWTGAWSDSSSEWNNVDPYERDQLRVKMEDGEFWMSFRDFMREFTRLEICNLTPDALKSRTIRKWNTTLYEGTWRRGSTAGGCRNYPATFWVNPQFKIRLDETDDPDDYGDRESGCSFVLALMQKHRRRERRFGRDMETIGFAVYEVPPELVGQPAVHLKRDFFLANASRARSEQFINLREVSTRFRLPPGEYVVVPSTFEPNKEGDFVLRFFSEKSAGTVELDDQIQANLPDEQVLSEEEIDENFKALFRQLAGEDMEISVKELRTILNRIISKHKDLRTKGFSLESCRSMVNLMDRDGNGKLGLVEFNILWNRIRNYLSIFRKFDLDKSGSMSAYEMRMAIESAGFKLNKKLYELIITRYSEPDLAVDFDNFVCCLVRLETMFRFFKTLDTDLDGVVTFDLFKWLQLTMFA
T2 sequence (P04632 1-268 partner): T1 sequence (P04632 1-268 partner)
As to the kind of experiment: in vitro calpain assay with succinic-Leu-Tyr-AMC, calpain-1. It is filed as biochemical. The settings on record: human calpain-1, succinic-Leu-Tyr-AMC. The method, then: as §1

In series [2] the test system is calpain-2 activation in the retina. Put plainly: acute glaucoma model (increased IOP), SBDP immunohistochemistry in retina. The settings on record: mouse. It is filed as in vivo. As for the experimental part:
Immunohistochemistry for SBDP (green) in sections from a sham animal (surgery only), animal subjected to increased IOP and injected intraocularly with vehicle (10% DMSO in PBS, 1 μl; IOP)), increased IOP and injected with NA115 (40 μM, 100 μM, and 200 μM). Blue staining represents cell nuclear staining with the retinal ganglion cells on the upper layer.
For each image, mean fluorescence intensity (MFI) is analyzed in the inner plexiform layer (layer between the 2 cell body layers in FIG. 1). Three frozen sections (20 μm-thick), cut through the optic disc of each eye, were collected and stained with SBDP antibody. In each section, three images were captured under 60× objective of a confocal microscope (LSM-880). For each image, MFI (mean fluorescence intensities) in the IPL layer were measured in ImageJ and averaged. N=2 animals/group.
Same experimental procedure as in FIGS. 1-4. NA117 was injectedintraocularly at a concentration of 200 μM). One-way ANOVA followed by Bonferroni test. *p<0.05, **p<0.01. Results are means±SEM of 2 animals. Scale bar=20 microns.
The model of acute glaucoma previously reported in Wang et al. (2016) was used. In this model, intraocular pressure (IOP) was increased to 110 mm Hg for 1 h with the mouse under anesthesia. Two h later mice received an intraocular injection of various concentrations of a calpain-2 inhibitor and were returned to their home cages. […]

Series [3] can be described thus: plasma stability in mouse plasma. The series is classed as in vitro ADME. The following applies: mouse plasma; solubilized in 2-Hydroxypropyl)-beta-cyclodextrin or captisol, depending on the solvent. The method, then: Stability of NA115 was evaluated with NA115 solubilized in 2-Hydroxypropyl)-beta-cyclodextrin or in captisol.
Moreover, 1 mM of the NA115 in beta-cyclodextrin was diluted 5 times in freshly prepared mouse plasma (200 μM NA115 in plasma). The mixture was incubated at 37 degree. At indicated time point, 1 μl of the mixture was added to 99 ul of calpain assay solution containing 5 mM Ca2+, 200 μM Suc-Leu-Tyr-AMC substrate and 100 nM calpain-2. Hydrolysis rate was monitored in the plate reader. As a control, 1 μl of plasma alone was subjected to calpain assay and its hydrolysis rate was set as 100% of calpain activity.

The target of series [4] is T1, calpain-2. As to the kind of experiment: IC50 on calpain-1 and calpain-2 activities (Wang et al., 2014), selectivity. It is filed as biochemical. The method, then: These compounds can be calpain-2 selective inhibitors. […] IC50 values for NA115 on the activity of calpain-1 and calpain-2 activities were measured (Wang et al., 2014). […] The selectivity of NA117 was 24.1. [0016] Pharmaceutical compositions of the invention comprise NA115 and NA117, and a pharmaceutically acceptable excipient. Excipients used in pharmaceutical composition of the invention are safe and provide the appropriate delivery for the desired route of administration, of an effective amount of NA115 and NA117.

Series [5] in a line: epimerization in pig vitreous fluid, aliquots tested in the calpain-2 assay. The series is classed as in vitro ADME. The following applies: 35° C.; for change of inhibitory effect in the calpain-2 assay after incubation: 2 μM, various periods of time. The method, then: NA115A or NA115B (2 μM) was incubated with pig vitreous fluid for various periods of time at 35° C. Aliquots were then tested in the calpain-2 assay. […] (FIGS. 9A-9D).

What is called IC50 is the point on the concentration scale where inhibition reaches its midpoint. The term Ki denotes a measure of affinity in units of concentration, obtained from inhibition or displacement. The term half-life denotes the time in which the quantity being followed falls by half. Read a high half-life as slow loss. Consider `CCC(NC(=O)[C@H](CC(C)C)NC(=O)CCc1ccccc1)C(=O)C(=O)NCc1cc(F)cc(OC)c1` (stereo partly drawn) [NA115, N-(3-fluoro-5-methoxybenzyl)-3-((S)-4-methyl-2-(3-phenylpropanamido)-pentanamido)-2-oxopentanamide], for which the “protection of retinal ganglion cells (anti-beta-III tubulin positive cells) from increased IOP-induced cell death” value in the series with retinal ganglion cells was “protects against retinal ganglion from increased ocular pressure-induced cell death”. On calpain-2 [1], the “Ratio KiCalpain-1/KiCalpain-2” value worked out at 4.5; the IC50 was 170 nM; the affinity, expressed as Ki, was 103 nM. Further, at human calpain-1, the IC50 was found to be 750 nM and the inhibitory constant (Ki) was 470 nM. In addition, the “inhibition of calpain-2 activation (SBDP staining) in the retina following increased IOP” value in series [2] (intraocular injection 40 μM, 100 μM, 200 μM, 2 h after IOP elevation, sacrificed 4 h later) was “dose-dependently inhibiting calpain-2 activation in the retina following increased IOP”. The compound also showed a half-life at 200 μM in series [3] of 9 to 15 h. Moreover, the “selectivity for calpain-2, ratio of IC50 calpain-1/IC50 calpain-2” value on calpain-2 [4] was 31.7.

On to `CC[C@H](NC(=O)[C@H](CC(C)C)NC(=O)CCc1ccccc1)C(=O)C(=O)NCc1cc(F)cc(OC)c1` [NA115A], for which, in series [5], the “change of inhibitory effect in the calpain-2 assay after incubation” value is “rapid decrease in the inhibitory effect” and the epimerization entry is listed as “rapid epimerization”. At calpain-2 [1], the “Ratio KiCalpain-1/KiCalpain-2” value was 1.5, the half-inhibitory concentration (IC50) was found to be 196 nM and affinity was put at a Ki of 124 nM. Moreover, at human calpain-1, the IC50 amounted to 331 nM and the inhibition constant (Ki) stood at 189 nM.

For `CC[C@@H](NC(=O)[C@H](CC(C)C)NC(=O)CCc1ccccc1)C(=O)C(=O)NCc1cc(F)cc(OC)c1` [NA115B], in series [5], the “change of inhibitory effect in the calpain-2 assay after incubation” value is “increased inhibitory effect” and the epimerization entry is on record as “rapid epimerization”. Also, at calpain-2 [1], the IC50 is over 10000 nM and the Ki is over 10000 nM. Further, on human calpain-1, the IC50 is over 10000 nM and the inhibitory constant (Ki) is over 10000 nM.

For the compound `CCC(NC(=O)[C@H](CC(C)C)NC(=O)CCc1ccccc1)C(=O)C(=O)NCc1cccc(OC)c1` (stereo partly drawn) [NA117, N-(3-methoxybenzyl)-3-((S)-4-methyl-2-(3-phenylpropanamido)pentanamido)-2-oxopentanamide], the “inhibition of calpain activation (SBDP staining) following increased IOP” value in series [2] (intraocular injection 200 μM) is listed as “also inhibits calpain activation following increased IOP”. For the same compound, at calpain-2 [4], the “selectivity for calpain-2, ratio of IC50 calpain-1/IC50 calpain-2” value turned out to be 24.1.
